Results as given in US12275729B2 (Merck Sharp & Dohme LLC, priority 2017, dated 2025).

What was measured:
IDO1 [1] = molecular target: T1, IDO1 (Homo sapiens, UniProt P14902); assay: IDO1 Cellular Assay in HeLa Cells Stimulated with IFNγ; format: cell-based; conditions: read-out: Hela IC50
IDO1 [2] = molecular target: T1, IDO1; assay: IDO1 Human Whole Blood Assay; format: cell-based; design: Human whole blood was drawn in sodium heparin coated tubes from healthy internal donors; from tissue; host or cells: human whole blood from healthy donors, stimulated with LPS and IFNγ; conditions: LPS and IFNγ stimulated
Procedure: IDO1 Human Whole Blood Assay
Compounds to be tested were serially diluted in ten 3-fold steps in DMSO starting from 10 mM. […] LPS and IFNγ was prepared in RPMI to a 10× of final conc. (1000 ng/mL), final concentration is 100 ng/mL.
Human whole blood was drawn in sodium heparin coated tubes from healthy internal donors. 240 μL of blood was transferred to each of the wells of a v-bottom 96 well plate. 30 μL of compound was transferred from intermediate dilution plate, and incubated for 15 min. 30 μL from stimulants was then transferred to blood and mixed thoroughly.
On day 2 isotope labeled standard of kynurenine and tryptophan was made in water at 1Ox concentration and 30 μL was added to the blood at […] final concentration. The assay plates were centrifuged at 300×G for 10 min with no brake to separate plasma from red blood cells. 60 μL of plasma samples was removed without disturbing red blood cells. Plasma was diluted with RPMI in 1:1 ratio and proteins were precipitated out with two volume of Acetonitrile. The plates were centrifuged at 4000×G for 60 min. 20 μL of supernatant was carefully transferred to a 384 well plate contain 40 μL of 0.1% formic acid in water and analyzed by LC/MS/MS.
LC/MS/MS analyses were performed using Thermo Fisher's LX4-TSQ Quantum Ultra system. This system consists of four Agilent binary high-performance liquid chromatography (HPLC) pumps and a TSQ Quantum Ultra triple quadrupole MS/MS instrument. For each sample, 5 μL were injected onto an Atlantis T3 column (2.1 mm×150 mm, […] particle size) from Waters. The mobile phase gradient pumped at 0.8 mL/min was used to elute the analytes from the column at 25° C. […] Mobile phase A consisted of 0.1% formic acid in water. Mobile phase B consisted of 0.1% of formic acid in acetonitrile. Data was acquired in positive mode using a HESI interface. The operational parameters for the TSQ Quantum Ultra instrument were a spray voltage of 4000 V, capillary temperature of 380° C., vaporizer temperature 400° C., shealth gas 60 arbitrary units, Aux gas 20 arbitrary units, tube lens 85 and collision gas 1.2 mTorr. […] The peak area was integrated by Xcalibur Quan software. The ratios between the kynurenine generated in the reaction and 2D6-Kynurenine spiked-in internal standard were used to generate percentage inhibition and IC50 values.

T1 sequence (P14902 whole entry): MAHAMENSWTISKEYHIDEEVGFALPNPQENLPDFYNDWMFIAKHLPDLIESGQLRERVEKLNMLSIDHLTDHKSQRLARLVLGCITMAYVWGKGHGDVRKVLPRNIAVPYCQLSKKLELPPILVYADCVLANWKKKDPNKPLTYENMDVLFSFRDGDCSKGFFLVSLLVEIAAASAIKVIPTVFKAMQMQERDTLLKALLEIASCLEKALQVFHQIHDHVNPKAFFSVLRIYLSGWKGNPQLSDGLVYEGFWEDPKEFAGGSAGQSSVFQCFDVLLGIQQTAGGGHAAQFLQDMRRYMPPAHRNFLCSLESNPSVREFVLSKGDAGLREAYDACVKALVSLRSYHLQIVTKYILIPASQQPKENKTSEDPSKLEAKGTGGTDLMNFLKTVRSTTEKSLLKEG

| IC50 (IDO1 [1]; about 48 hours) [nM] | IC50 (IDO1 [2]) [nM] | IC50 (IDO1 [1]) [nM] | IC50 (IDO1 [1]; value in running text) [nM] | Compound |
| --- | --- | --- | --- | --- |
| 3 | 93 | – | – | O=C(c1cccc(Cl)c1)N1CCc2nc(C3(C(=O)Nc4ccc(F)cc4)CCC3)ccc21 [Example 275, 1-[1-(3-chlorobenzene-1-carbonyl)-2,3-dihydro-1H-pyrrolo[3,2-b]pyridin-5-yl]-N-(4-fluorophenyl)cyclobutane-1-carboxamide] |
| – | 178 | 0.93 | – | Cc1nccc(N2CCCc3nc(C(C)C(=O)Nc4ccc(Cl)cc4)ccc32)n1 (centres unmarked) [Example 363, N-(4-chlorophenyl)-2-(5-(2-methylpyrimidin-4-yl)-5,6,7,8-tetrahydro-1,5-naphthyridin-2-yl)propanamide] |
| – | 12 | 1.09 | 1 | Cc1nccc(N2CCCc3nc(C4(C(=O)Nc5ccc(F)cc5)CC(F)(F)C4)ccc32)n1 [Example 420, 3,3-difluoro-N-(4-fluorophenyl)-1-(5-(2-methylpyrimidin-4-yl)-5,6,7,8-tetrahydro-1,5-naphthyridin-2-yl)cyclobutanecarboxamide] |
| 3.18 | 2980 | – | – | Cc1cncc(N2CCCc3nc(C4(NC(=O)c5ccc(Cl)cc5)CCC4)ccc32)c1 [Example 406, 4-chloro-N-(1-(5-(5-methylpyridin-3-yl)-5,6,7,8-tetrahydro-1,5-naphthyridin-2-yl)cyclobutyl)benzamide] |
| 0.7 | 63 | – | – | Cc1nccc(N2CCCc3nc(C4(NC(=O)c5ccc(Cl)cc5)CC4)ccc32)n1 [Example 249, 4-chloro-N-(1-(5-(2-methylpyrimidin-4-yl)-5,6,7,8-tetrahydro-1,5-naphthyridin-2-yl)cyclopropyl)benzamide] |
| 2.1 | 22 | – | – | C[C@H](C(=O)Nc1ccc(F)cc1)c1ccc2c(c1)CCCN2C(=O)[C@H]1CCCCO1 (single isomer, unassigned) [Example 87] |
| – | 436 | 27.9 | – | Cc1nc(N2CCCc3nc(C(C)NC(=O)c4ccc(Cl)cc4)ccc32)c2ccccc2n1 (centres unmarked) [Example 357, 2-(1-(4-chlorobenzamido)ethyl)-5-(2-methylquinazolin-4-yl)-5,6,7,8-tetrahydro-1,5-naphthyridin-1-ium 2,2,2-trifluoroacetate] |
| – | 26 | 6.84 | 6.8 | Cc1nccc(N2CCCc3nc(C4(C(=O)Nc5ccc(F)cc5)CC(OCc5ccccc5)C4)ccc32)n1 (centres unmarked) [Example 423, 2-(3-(benzyloxy)-1-((4-fluorophenyl)carbamoyl)cyclobutyl)-5-(2-methylpyrimidin-4-yl)-5,6,7,8-tetrahydro-1,5-naphthyridin-1-ium 2,2,2-trifluoroacetate] |
| 1.2 | 41 | – | – | O=C(OC1CC1)N1CCc2cc(C3(C(=O)Nc4ccc(F)cc4)CCC3)ccc21 [Example 270, cyclopropyl 5-{1-[(4-fluorophenyl)carbamoyl]cyclobutyl}-2,3-dihydro-1H-indole-1-carboxylate] |
| 2.7 | 2580 | – | – | Cc1cccc(N2CCCc3nc(C4(NC(=O)c5ccc(F)cc5)CC4)ccc32)n1 [Example 245, 4-fluoro-N-(1-(5-(6-methylpyridin-2-yl)-5,6,7,8-tetrahydro-1,5-naphthyridin-2-yl)cyclopropyl)benzamide] |
| 3.3 | 20 | – | – | Cc1cccc(N2CCCc3nc(C4(C(=O)Nc5ccc(Cl)cc5)CCC4)ccc32)n1 [Example 404, N-(4-chlorophenyl)-1-(5-(6-methylpyridin-2-yl)-5,6,7,8-tetrahydro-1,5-naphthyridin-2-yl)cyclobutane-1-carboxamide] |
| 6.2 | 223 | – | – | O=C(C1CC1)N1CCCc2cc(C3(C(=O)Nc4ccc(F)cn4)CCC3)ccc21 [Example 96, 1-(1-(cyclopropanecarbonyl)-1,2,3,4-tetrahydroquinolin-6-yl)-N-(5-fluoropyridin-2-yl)cyclobutane-1-carboxamide] |
| 5.4 | 557 | – | – | CCn1ccc(N2CCCc3cc(C4(C(=O)Nc5ccc(F)cn5)CCC4)ccc32)n1 [Example 232, 1-[1-(1-ethyl-H-pyrazol-3-yl)-1,2,3,4-tetrahydroquinolin-6-yl]-N-(5-fluoropyridin-2-yl)cyclobutane-1l-carboxamide] |
| 8 | 125 | – | – | C[C@@H](NC(=O)c1ccc(F)cc1)c1ccc2c(n1)CCCN2C(=O)[C@H]1CCCO1 [Example 145, 4-fluoro-N-[(1R)-1-{5-[(2R)-oxolane-2-carbonyl]-5,6,7,8-tetrahydro-1,5-naphthyridin-2-yl}ethyl]benzamide] |
| 1.82 | 27 | – | – | O=C(Nc1ccc(Cl)cc1)C1(c2ccc3c(n2)CCCN3c2ccnc(C(F)(F)F)n2)COC1 [Example 396, N-(4-chlorophenyl)-3-(5-(2-(trifluoromethyl)pyrimidin-4-yl)-5,6,7,8-tetrahydro-1,5-naphthyridin-2-yl)oxetane-3-carboxamide] |
| 5.86 | – | – | – | CC(C(=O)Nc1ccc(Cl)cc1)c1ccc2c(c1)CC(F)CN2C(=O)c1cccc(Cl)c1 (single isomer, unassigned) [Example 258, 2-(1-(3-chlorobenzoyl)-3-fluoro-1,2,3,4-tetrahydroquinolin-6-yl)-N-(4-chlorophenyl)propanamide] |
| 5.2 | – | – | – | O=C(NC1(c2ccc3c(n2)CCCN3C(=O)C2CC2)CCC1)c1ccc(Cl)cc1 [Example 183, 4-chloro-N-{1-[5-(cyclopropanecarbonyl)-5,6,7,8-tetrahydro-1,5-naphthyridin-2-yl]cyclobutyl}benzamide] |
| 55.7 | – | – | – | O=C(C1CC1)N1CCCc2nc(C3(C(=O)Nc4ccc(F)cn4)CCC3)ccc21 [Example 169, 1-[5-(cyclopropanecarbonyl)-5,6,7,8-tetrahydro-1,5-naphthyridin-2-yl]-N-(5-fluoropyridin-2-yl)cyclobutane-1-carboxamide] |
| 67.1 | – | – | – | O=C(Nc1ccc(F)cn1)C1(c2ccc3c(c2)CCCN3S(=O)(=O)N2CCCC2)CCC1 [Example 122, N-(5-fluoropyridin-2-yl)-1-{1-[(pyrrolidin-1-yl)sulfonyl]-1,2,3,4-tetrahydroquinolin-6-yl}cyclobutane-1-carboxamide] |
| 16.5 | – | – | – | C[C@H](C(=O)Nc1ccc(F)cn1)c1ccc2c(c1)CCCN2C(=O)C1(F)CC1 (single isomer, unassigned) [Example 63] |
| 3.5 | – | – | – | CC(NC(=O)c1ccc(Cl)cc1)c1ccc2c(n1)OCCN2C(=O)c1ccccc1 (racemic) [Example 253, N-(1-(1-benzoyl-2,3-dihydro-1H-pyrido[2,3-b][1,4]oxazin-6-yl)ethyl)-4-chlorobenzamide] |
| 34.1 | – | – | – | CS(=O)(=O)N1CCCc2cc(C3(C(=O)Nc4ccc(F)cn4)CCC3)ccc21 [Example 123, N-(5-fluoropyridin-2-yl)-1-[1-(methylsulfonyl)-1,2,3,4-tetrahydroquinolin-6-yl]cyclobutane-1-carboxamide] |
| – | – | 315 | – | COc1ccnc(N2CCCc3nc(C(C)NC(=O)c4ccc(F)cc4)ccc32)c1 (centres unmarked) [Example 377, 4-fluoro-N-(1-(5-(4-methoxypyridin-2-yl)-5,6,7,8-tetrahydro-1,5-naphthyridin-2-yl)ethyl)benzamide] |
| 11 | – | – | – | O=C(Nc1ccc(F)cc1)C(c1ccc2c(n1)CCCN2C(=O)C1CC1)C1CC1 (single isomer, unassigned) [Example 262, 2-(5-(cyclopropanecarbonyl)-5,6,7,8-tetrahydro-1,5-naphthyridin-2-yl)-2-cyclopropyl-N-(4-fluorophenyl)acetamide] |
| 8.2 | – | – | – | CC(C(=O)Nc1ccc(F)cc1)c1ccc2c(n1)CCCN2C(=O)C1CCCCO1 (single isomer, unassigned) [Example 160, N-(4-fluorophenyl)-2-[5-(oxane-2-carbonyl)-5,6,7,8-tetrahydro-1,5-naphthyridin-2-yl]propanamide] |
| 10.9 | – | – | – | C[C@H](C(=O)Nc1ccc(F)cc1)c1ccc2c(c1)CCCN2C(=O)CC1CC1 [Example 82, (2S)-2-[1-(cyclopropylacetyl)-1,2,3,4-tetrahydroquinolin-6-yl]-N-(4-fluorophenyl)propanamide] |
| 12.8 | – | – | – | Cc1cc(C(=O)N2CCCc3cc(C4(C(=O)Nc5ccc(F)cn5)CCC4)ccc32)ncn1 [Example 107, N-(5-fluoropyridin-2-yl)-1-[1-(6-methylpyrimidine-4-carbonyl)-1,2,3,4-tetrahydroquinolin-6-yl]cyclobutane-1-carboxamide] |
